Measured values: patent publication US20080287445A1, “Prokineticin 2 receptor antagonists” (priority 2005, published 2008)
Several values for one entry are separate records, joined by “and”; a condition that tells them apart may be missing. Equal values may be shown once.

Molecular target: T1, GPR73 (prokineticin 1 receptor) (Homo sapiens, UniProt Q8TCW9)
T1 construct: expressed in transfected cells; host or cells: HEK 293
Assay: PK1 functional assay: Ca2+ mobilization screening for PK1 antagonists on the FLIPR
Format: cell-based
Conditions: HEK 293 GPR73 cells, multiple values = multiple testing; for inhibition at 10 µM: HEK293, 10 μM compound, read-out: Ca^2+ Mobilization % Inh @ 10 μM; for IC50: PK1 ligand preparation at its EC50, read-out: Ca^2+ Mobilization IC50; for Ca^2+ Mobilization % Inh @ 10 μM: 10 μM compound
Experimental: At a time of 24 h prior to running the assay, in cell culture media (DMEM containing high Glucose and L-glutamine, 10% FBS, 1% Pen/Streptomycin, 1% Sodium Pyruvate, 20 mM HEPES, Zeocin 200 mg/L), 100 μL of 1.3*10^6/ml HEK 293 GPR73 (prokineticin 1 receptor) expressing cells were plated in a 96 well poly-d-lysine coated plate (Costar), and incubated at 37 C and 5% CO2. On the day in which the assay was run, the media was removed and 200 μL of 5× Calcium Plus Dye (Molecular Devices) which was previously resuspended with 200 mL of assay buffer [HBSS w/Ca^2+ and Mg^2+ w/o phenol red, 20 mM HEPES, 0.1% BSA, 10 mL probenecid (710 mg probenecid in 5 mL of 1N NaOH, to which was then added 5 mL HBSS containing 20 mM HEPES)] was added to each well of the 96-well plate. The plate was incubated at 37 C and 5% CO2 for 30 min in dark. The plate was removed and allowed to reach RT for 15 min in the dark. The assay was then run on the FLIPR. In Brief: base line read for 1 min, compound added (25 μL) and incubated for 4 min, 15 seconds, PK1 ligand preparation added (25 μL) for a final concentration of a previously determined EC50 and fluorescence was counted for 1 min, 45 seconds. Baseline is described as the amount of relative fluorescence read when buffer alone is added to cells. Baseline was subtracted from all wells. Percent of control was calculated as follows:
(Baseline subtracted well value is divided by baseline subtracted max value)*100. Percent inhibition is 100 minus the percent of control value.
The IC50 is defined as the amount of a given compound required to inhibit 50% of the maximum signal that is generated by the concentration of PK1 preparation used in our assay. IC50 values were calculated using GraphPad Prism.

T1 sequence (Q8TCW9 whole entry, species assumed): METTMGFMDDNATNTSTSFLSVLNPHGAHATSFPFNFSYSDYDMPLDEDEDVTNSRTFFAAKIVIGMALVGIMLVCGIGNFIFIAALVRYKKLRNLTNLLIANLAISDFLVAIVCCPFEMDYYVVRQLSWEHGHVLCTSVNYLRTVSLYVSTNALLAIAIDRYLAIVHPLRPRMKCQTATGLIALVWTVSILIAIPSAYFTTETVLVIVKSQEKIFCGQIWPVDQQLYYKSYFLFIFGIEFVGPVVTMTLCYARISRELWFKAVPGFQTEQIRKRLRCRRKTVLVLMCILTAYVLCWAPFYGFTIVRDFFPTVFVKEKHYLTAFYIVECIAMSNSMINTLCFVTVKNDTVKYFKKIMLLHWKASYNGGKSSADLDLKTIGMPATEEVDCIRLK

| Compound | inhibition at 10 µM [%] | IC50 | Ca^2+ Mobilization % Inh @ 10 μM |
| --- | --- | --- | --- |
| COc1ccc(Cn2c(NCCc3ccccn3)nc(=O)n(Cc3ccc(Cl)c(Cl)c3)c2=O)cc1 [Cpd 1] | 37 | > 10000 nM |  |
| COc1ccc(Cn2c(NCc3cccnc3)nc(=O)n(Cc3ccc(Cl)c(Cl)c3)c2=O)cc1 [Cpd 2] | 47 | > 10000 nM |  |
| COc1ccc(Cn2c(NCc3ccc(N)cn3)nc(=O)n(Cc3ccc(Cl)cc3)c2=O)cc1 [Cpd 4] | 94 | 357 nM |  |
| COc1ccc(Cn2c(NCc3ccc(N)nc3)nc(=O)n(Cc3ccc(Cl)cc3)c2=O)cc1 [Cpd 5] | 81 | 1120 nM |  |
| COc1ccc(Cn2c(NCc3cncnc3N)nc(=O)n(Cc3ccc(OC)cc3)c2=O)cc1 [Cpd 6] | 90 | 176 nM |  |
| COc1ccc(Cn2c(CNCc3cccnc3N)cc(=O)n(Cc3ccc(OC)cc3)c2=O)cc1 [Cpd 7, 6-{[(2-Amino-pyridin-3-ylmethyl)-amino]-methyl}-1,3-bis-(4-methoxy-benzyl)-1H-pyrimidine-2,4-dione] | 60 | 6200 nM |  |
| COc1ccc(Cn2c(NCc3cccnc3N)nc(=O)n(Cc3ccc(F)cc3)c2=O)cc1 [Cpd 8] | 89 | 535 nM and 669 nM | 86% |
| COc1ccc(Cn2c(NCc3cc4ccccc4nc3N)nc(=O)n(Cc3ccc(OC)cc3)c2=O)cc1 [Cpd 9] | 95 | 295 nM |  |
| COc1ccc(Cn2c(NCCc3cccnc3N)nc(=O)n(Cc3ccc(F)cc3)c2=O)cc1 [Cpd 10] | 82 | 1250 nM |  |
| COc1ccc(Cn2c(NCc3cccnc3N3CCCC3)nc(=O)n(Cc3ccc(F)cc3)c2=O)cc1 [Cpd 11] | 54 | 6790 nM |  |
| COc1ccc(Cn2c(NCc3cccnc3N3CCNCC3)nc(=O)n(Cc3ccc(OC)cc3)c2=O)cc1 [Cpd 12] | 74 | 1290 nM |  |
| COc1ccc(Cn2c(NCc3cccnc3N3CCCCC3)nc(=O)n(Cc3ccc(OC)cc3)c2=O)cc1 [Cpd 13] | 72 | 544 nM |  |
| CNc1ncccc1CNc1nc(=O)n(Cc2ccc(F)cc2)c(=O)n1Cc1ccc(OC)cc1 [Cpd 14] | 90 | 793 nM |  |
| CCCNc1ncccc1CNc1nc(=O)n(Cc2ccc(F)cc2)c(=O)n1Cc1ccc(OC)cc1 [Cpd 15] | 95 | 327 nM |  |
| CCCCNc1ncccc1CNc1nc(=O)n(Cc2ccc(F)cc2)c(=O)n1Cc1ccc(OC)cc1 [Cpd 16] | 89 | 348 nM |  |
| COc1ccc(Cn2c(NCc3cccnc3N3CCOCC3)nc(=O)n(Cc3ccc(F)cc3)c2=O)cc1 [Cpd 17] | 73 | 2430 nM |  |
| COc1ccc(Cn2c(NCc3cccnc3N3CCSCC3)nc(=O)n(Cc3ccc(F)cc3)c2=O)cc1 [Cpd 18] | 58 | 5480 nM |  |
| CCNc1ncccc1CNc1nc(=O)n(Cc2ccc(F)cc2)c(=O)n1Cc1ccc(OC)cc1 [Cpd 19] | 83 | 885 nM |  |
| COc1ccc(Cn2c(NCc3cccnc3N3CCOCC3)nc(=O)n(Cc3ccc(OC)cc3)c2=O)cc1 [Cpd 20] | 95 | 177 nM |  |
| COc1ccc(Cn2c(NCc3ccc4c(n3)NCCC4)nc(=O)n(Cc3ccc(F)cc3)c2=O)cc1 [Cpd 21, 3-(4-Fluoro-benzyl)-1-(4-methoxy-benzyl)-6-[(5,6,7,8-tetrahydro-[1,8]naphthyridin-2-ylmethyl)-amino]-1H-[1,3,5]triazine-2,4-dione] | 85 | 656 nM |  |
| COc1ccc(Cn2c(NCc3cnc(C)cc3C)nc(=O)n(Cc3ccc(OC)cc3)c2=O)cc1 [Cpd 22, 6-[(4,6-Dimethyl-pyridin-3-ylmethyl)-amino]-1,3-bis-(4-methoxy-benzyl)-1H-[1,3,5]triazine-2,4-dione] | 88 |  | 96% and 97% |
| COc1ccc(Cn2c(NCc3cccnc3N)nc(=O)n(Cc3cc4ccccc4o3)c2=O)cc1 [Cpd 23] | 97 | 231 nM |  |
